Measurements reported in PMC10967270, “Intrapulmonary and Systemic Pharmacokinetics of Colistin Following Nebulization of Low-Dose Colistimethate Sodium in Patients with Ventilator-Associated Pneumonia Caused by Carbapenem-Resistant Acinetobacter baumannii” (Antibiotics, 2024).
Positions of bridges follow the written chain, without caps; N, C: chain ends. Non-standard residues stand in square brackets, D forms with d. Residues, ends and D or L forms follow the SMILES beside them. *: point of attachment. X1 = CC[C@H](C)CCCCC(=O)*; Dab = NCC[C@H](N)C(=O)O

Experiment: Colistin concentration in epithelial lining fluid (BALF, urea-corrected) after CMS nebulization
Type: in vivo, human
Protocol: Patients were treated with CMS (Xellia Pharmaceuticals ApS, Copenhagen, Denmark) at a total of 3.75 MIU (equivalent to 300 mg of CMS or 112.5 mg of CBA) administered four times a day at 6 h intervals. CMS was dissolved in 5 mL of normal saline and administered over 30 min through a jet nebulizer (Sileo 54, Macjin Medical, Seoul, Republic of Korea) connected to the ventilator circuit. Bronchoalveolar lavage fluid (BALF) was obtained by instilling 20 mL of normal saline into the right middle lobe or left lingular segmental bronchus using a bronchoscope, followed by immediate aspiration and collection into a syringe. Samples were collected immediately before the nebulization treatment and at 1, 3, and 5 h after the start of the treatment. Blood samples were collected before the nebulization treatment and at 1, 2, 3, and 5 h thereafter. Both BALF and blood samples were centrifuged at 3000× g for 10 min within 1 h of collection and the supernatant was isolated. Samples were then stored in a refrigerator at a temperature below −70 °C.
A validated liquid chromatography–tandem mass spectrometry assay was used to determine colistin concentrations in BALF and plasma samples. The HPLC equipment consisted of an Agilent 1200 series modular system and an Atlantis C18 column (Company, Waters, Milford, MA, USA) (2.1 mm × 150 mm, 3.0 μm). Mobile phases A and B were water and acetonitrile, respectively. Both phases contained 0.1% formic acid. A gradient elution program was started at 10% B, increased to 35% for 1 min, maintained at this composition for 3.8 min, and returned to the initial composition for 5 min to re-equilibrate the column. Mass spectrometry (MS) was performed using a triple-quadruple mass spectrometer (SCIEX QTRAP5500, Applied Biosystems, Foster City, CA, USA) with an electrospray ionization (ESI) interface. The ESI source was set to positive ionization mode. The parent to product transition (m/z) was 578.483→101.071 for colistin A, 585.453→101.071 for colistin B, and 602.527→101.000 for polymyxin B. Data acquisition and processing were performed using the Analyst software (version 1.7.1; Applied Biosystems, Foster City, CA, USA). Stock solutions of colistin and IS were prepared in deionized water at concentrations of 10 mg/mL, and both were stored at −20 °C. Working solutions of colistin were prepared in deionized water (dilutions of 2, 5, 10, 50, 100, 500, and 1000 μg/mL). Calibration standards were prepared by spiking 247.5 μL of drug-free plasma with 2.5 μL of colistin working solution. Low (colistin A; 11.16 ng/mL, colistin B; 48.84 ng/mL), moderate (colistin A; 186 ng/mL, colistin B; 814 ng/mL), and high (colistin A; 1488 ng/mL, colistin B; 6512 ng/mL) concentrations of QC samples were prepared. Sample pretreatment involved a solid phase extraction. A 250 μL aliquot of plasma was pipetted into a 1.5 mL Eppendorf tube, to which 10 μL of IS (10 μg/mL, polymyxin B) and 740 μL of deionized water were added. This mixture was loaded into a cartridge that had been preconditioned twice with 1 mL of methanol and 1 mL of deionized water. After the plasma mixture was loaded, the cartridge was washed with 1 mL of deionized water. One milliliter of methanol including 0.1% formic acid was used for extraction. Extraction liquid was evaporated by vacuum concentrator (Speedvac, Thermo Fisher Scientific Inc., Waltham, MA, USA) at 45 °C for 2.5 h. Samples were reconstituted in 100 μL deionized water containing 0.1% formic acid. Subsequently, samples were vortexed for 5 min and centrifuged at 13,200 rpm for 10 min, and […] of supernatant was injected into the LC-MS system.
Colistin concentrations, encompassing both colistin A and colistin B, were determined and collectively referred to as “colistin”. The concentration of colistin in the epithelial lining fluid (ELF), termed CELF, was calculated using the formula CELF = CBAL (Ureaplasma/UreaBAL), where CBAL is the colistin concentration measured in BALF. […]

Question: Which results are given for CC[C@H](C)CCCCC(=O)N[C@@H](CCN)C(=O)N[C@H](C(=O)N[C@@H](CCN)C(=O)N[C@H]1CCNC(=O)[C@H]([C@@H](C)O)NC(=O)[C@H](CCN)NC(=O)[C@H](CCN)NC(=O)[C@H](CC(C)C)NC(=O)[C@@H](CC(C)C)NC(=O)[C@H](CCN)NC1=O)[C@@H](C)O [colistin] (X1-[Dab]T[Dab][Dab][Dab][dL]L[Dab][Dab]T; lactam 4-C)?
Answer: level at 1 h (human, epithelial lining fluid, inhaled or intranasal, 1 h after start (time by position in Figure 1a), CMS 0.9375 MIU nebulized over 30 min, LC-MS/MS, 20 patients, read-out: Median colistin concentration in ELF): 11800 ng/mL; level at 3 h (human, epithelial lining fluid, inhaled or intranasal, 3 h after start (time by position in Figure 1a), CMS 0.9375 MIU nebulized over 30 min, LC-MS/MS, 20 patients, read-out: Median colistin concentration in ELF): 15400 ng/mL; level at 5 h (human, epithelial lining fluid, inhaled or intranasal, 5 h after start (time by position in Figure 1a), CMS 0.9375 MIU nebulized over 30 min, LC-MS/MS, 20 patients, read-out: Median colistin concentration in ELF): 8160 ng/mL; Kp at 1 h (human, epithelial lining fluid, inhaled or intranasal, at 1 h, median concentrations, nebulized CMS 0.9375 MIU, read-out: Colistin concentration in ELF relative to plasma): ~614; Kp at 3 h (human, epithelial lining fluid, inhaled or intranasal, at 3 h, median concentrations, nebulized CMS 0.9375 MIU, read-out: Colistin concentration in ELF relative to plasma): ~408; Kp at 5 h (human, epithelial lining fluid, inhaled or intranasal, at 5 h, median concentrations, nebulized CMS 0.9375 MIU, read-out: Colistin concentration in ELF relative to plasma): ~250; Observed peak colistin concentration in ELF, median (IQR) (nebulized CMS 0.9375 MIU over 30 min, monitored over 5 h, 20 patients): 21,950 (10,440–28,389) μg/L
